In ChEMBL document CHEMBL1156733, “Structure-activity relationship studies on a series of piperazinebenzylalcohols and their ketone and amine analogs as melanocortin-4 receptor ligands” (Bioorg Med Chem Lett, 2008):
pIC50, pKi: −log10 of the molar value.

Legend:
Melanocortin receptor 4 [1] = target: T1, Melanocortin receptor 4 (Homo sapiens, UniProt P32245)
Homo sapiens = species: Homo sapiens; assay: Selectivity for human MC4 receptor over human MC4 receptor Asp122Ala mutant
Melanocortin receptor 4 [2] = target: Melanocortin receptor 4 (Homo sapiens, UniProt P32245, D122A); assay: Binding affinity to human MC4 receptor Asp122Ala mutant
Melanocortin receptor 4 [3] = target: T1, Melanocortin receptor 4; assay: Antagonist activity at human MC4 receptor expressed in cells assessed as inhibition of alpha-MSH-stimulated cAMP production; format: functional, cell-based
[4] = system: Melanocortin receptor 1 (Homo sapiens); assay: Inhibition of human MC1 receptor at 10 uM
Melanocortin receptor 3 = Melanocortin receptor 3 (Homo sapiens, UniProt P41968); assay: Binding affinity to MC3 receptor
Melanocortin receptor 5 = Melanocortin receptor 5 (Homo sapiens, UniProt P33032); assay: Binding affinity to MC5 receptor
Chain of Melanocortin receptor 5 (P33032 whole entry): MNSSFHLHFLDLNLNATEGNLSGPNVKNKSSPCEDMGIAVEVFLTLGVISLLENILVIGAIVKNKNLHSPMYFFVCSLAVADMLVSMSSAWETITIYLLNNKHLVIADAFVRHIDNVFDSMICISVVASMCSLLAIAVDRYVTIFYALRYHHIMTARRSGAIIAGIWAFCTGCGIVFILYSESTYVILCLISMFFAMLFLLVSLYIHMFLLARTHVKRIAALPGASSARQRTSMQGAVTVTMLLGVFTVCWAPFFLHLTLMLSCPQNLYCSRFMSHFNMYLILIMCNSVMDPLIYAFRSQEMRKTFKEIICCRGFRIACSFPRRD

Chain of Melanocortin receptor 3 (P41968 whole entry): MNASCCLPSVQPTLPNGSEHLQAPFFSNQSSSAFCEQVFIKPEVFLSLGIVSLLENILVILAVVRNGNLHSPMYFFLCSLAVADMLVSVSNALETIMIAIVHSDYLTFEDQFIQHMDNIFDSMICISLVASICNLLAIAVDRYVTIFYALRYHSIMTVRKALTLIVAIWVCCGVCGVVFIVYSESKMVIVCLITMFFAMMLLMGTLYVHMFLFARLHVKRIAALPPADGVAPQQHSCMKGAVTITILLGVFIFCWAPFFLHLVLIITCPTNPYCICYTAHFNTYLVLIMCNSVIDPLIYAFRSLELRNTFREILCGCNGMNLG
Chain of Melanocortin receptor 4 (Homo sapiens, UniProt P32245, D122A) (P32245 whole entry D122A): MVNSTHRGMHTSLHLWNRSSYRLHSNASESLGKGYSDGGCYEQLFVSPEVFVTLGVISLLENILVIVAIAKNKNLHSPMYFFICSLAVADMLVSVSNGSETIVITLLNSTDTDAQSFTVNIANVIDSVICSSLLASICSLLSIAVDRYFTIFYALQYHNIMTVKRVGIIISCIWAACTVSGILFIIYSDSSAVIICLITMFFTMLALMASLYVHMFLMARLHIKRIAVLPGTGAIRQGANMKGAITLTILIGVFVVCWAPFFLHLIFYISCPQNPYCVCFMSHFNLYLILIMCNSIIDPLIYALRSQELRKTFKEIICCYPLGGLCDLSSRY
T1 sequence (P32245 whole entry): as the sequence (P32245 whole entry D122A) above, with A122D counted along it

SMILES | pKi (Melanocortin receptor 4 [1]) | also measured
CCCCCN(CCCCC)[C@H](Cc1ccc(Cl)cc1Cl)C(=O)N1CCN(c2ccccc2C(O)CC(C)C)CC1 (some centres undefined) | 5.49 | 
CCC(O)(CC)c1ccccc1N1CCN(C(=O)[C@@H](Cc2ccc(Cl)cc2Cl)NC(=O)CNC)CC1 | 7.89 | 
CC(C)CC(O)c1ccccc1N1CCN(C(=O)[C@@H](Cc2ccc(Cl)cc2Cl)NC(C)C)CC1 (some centres undefined) | 6.42 | 
CCCCN(CCCC)[C@H](Cc1ccc(Cl)cc1Cl)C(=O)N1CCN(c2ccccc2C(N)CC(C)C)CC1 (some centres undefined) | 6.92 | 
CCC(O)(CC)c1ccccc1N1CCN(C(=O)[C@@H](Cc2ccc(Cl)cc2Cl)NC(=O)[C@@H](C)N)CC1 | 7.19 | 
CCCC(C)(O)c1ccccc1N1CCN(C(=O)[C@@H](Cc2ccc(Cl)cc2Cl)NC(=O)CCN)CC1 (some centres undefined) | 7.96 | 
CC(C)CC(=O)c1ccccc1N1CCN(C(=O)[C@@H](Cc2ccc(Cl)cc2Cl)N(CC(C)C)CC(C)C)CC1 | < 5.00 | 
CC(C)CC(O)c1ccccc1N1CCN(C(=O)[C@@H](Cc2ccc(Cl)cc2Cl)NCC2CCOC2)CC1 (some centres undefined) | 7.05 | 
CC(C)CC(=O)c1ccccc1N1CCN(C(=O)[C@@H](Cc2ccc(Cl)cc2Cl)N(Cc2ccccn2)Cc2ccccn2)CC1 | 6.96 | 
CCC(O)(CC)c1ccccc1N1CCN(C(=O)[C@@H](Cc2ccc(Cl)cc2Cl)NC(=O)NC2CC2)CC1 | 7.38 | 
CC(C)CC(=O)c1ccccc1N1CCN(C(=O)[C@@H](Cc2ccc(Cl)cc2Cl)NC(C)C)CC1 | 6.25 | 
CC(C)CC(O)c1ccccc1N1CCN(C(=O)[C@H](N)Cc2ccc(Cl)cc2Cl)CC1 (some centres undefined) | 6.55 | 
CCC(O)(CC)c1ccccc1N1CCN(C(=O)[C@@H](Cc2ccc(Cl)cc2Cl)NC(=O)OC(C)(C)C)CC1 | 6.41 | 
CSCCCN[C@H](Cc1ccc(Cl)cc1Cl)C(=O)N1CCN(c2ccccc2C(=O)CC(C)C)CC1 | 6.64 | 
CC(C)CC(N)c1ccccc1N1CCN(C(=O)[C@@H](Cc2ccc(Cl)cc2Cl)NC(C)C)CC1 (some centres undefined) | 7.28 | 
CCC(O)(CC)c1ccccc1N1CCN(C(=O)[C@@H](Cc2ccc(Cl)cc2Cl)NC(=O)CCN)CC1 | 7.96 | 
CNC(C)(C)C(=O)N[C@H](Cc1ccc(Cl)cc1Cl)C(=O)N1CCN(c2ccccc2C(=O)CC(C)C)CC1 | 7.04 | 
NCCC(=O)N[C@H](Cc1ccc(Cl)cc1Cl)C(=O)N1CCN(c2ccccc2CO)CC1 | 6.06 | 
CC(C)CC(O)c1ccccc1N1CCN(C(=O)[C@@H](Cc2ccc(Cl)cc2Cl)NC(=O)CN)CC1 (some centres undefined) | 7.89 | 
CC(C)CC(=O)c1ccccc1N1CCN(C(=O)[C@@H](Cc2ccc(Cl)cc2Cl)NC(=O)CN)CC1 | 7.48 | 
CSCCCN[C@H](Cc1ccc(Cl)cc1Cl)C(=O)N1CCN(c2ccccc2C(O)CC(C)C)CC1 (some centres undefined) | 6.48 | 
CC(C)CC(O)c1ccccc1N1CCN(C(=O)[C@@H](Cc2ccc(Cl)cc2Cl)N(CC(C)C)CC(C)C)CC1 (some centres undefined) | < 5.00 | 

SMILES | pKi (Melanocortin receptor 4 [1]) | also measured
COc1ccccc1CC(O)c1ccccc1N1CCN(C(=O)[C@@H](Cc2ccc(Cl)cc2Cl)NC(=O)CCN)CC1 (some centres undefined) | 7.18 | 
NCCC(=O)N[C@H](Cc1ccc(Cl)cc1Cl)C(=O)N1CCN(c2ccccc2C(O)Cc2ccccc2)CC1 (some centres undefined) | 7.27 | 
C=CC(C)C(O)c1ccccc1N1CCN(C(=O)[C@@H](Cc2ccc(Cl)cc2Cl)NC(=O)CCN)CC1 (some centres undefined) | 7.54 | 
CCC(O)(CC)c1ccccc1N1CCN(C(=O)[C@@H](Cc2ccc(Cl)cc2Cl)NC(=O)CN)CC1 | 7.59 | 
CC(C)CC(N)c1ccccc1N1CCN(C(=O)[C@@H](Cc2ccc(Cl)cc2Cl)NC(=O)CN)CC1 (some centres undefined) | 8.70 | 
CCCCN(CCCC)[C@H](Cc1ccc(Cl)cc1Cl)C(=O)N1CCN(c2ccccc2C(=O)CC(C)C)CC1 | 5.77 | 
CNCC(=O)N[C@H](Cc1ccc(Cl)cc1Cl)C(=O)N1CCN(c2ccccc2C(=O)CC(C)C)CC1 | 7.51 | fold change (FC) (Homo sapiens): 9; pKi (Melanocortin receptor 4 [2]): 6.54
CC(C)CC(=O)c1ccccc1N1CCN(C(=O)[C@@H](Cc2ccc(Cl)cc2Cl)NC(=O)C(C)(C)N)CC1 | 6.96 | 
CCC(O)(CC)c1ccccc1N1CCN(C(=O)[C@@H](Cc2ccc(Cl)cc2Cl)NC(=O)C(C)(C)N)CC1 | 7.42 | 
CCCCCN(CCCCC)[C@H](Cc1ccc(Cl)cc1Cl)C(=O)N1CCN(c2ccccc2C(=O)CC(C)C)CC1 | 5.24 | 
CNCC(=O)N[C@H](Cc1ccc(Cl)cc1Cl)C(=O)N1CCN(c2ccccc2C(O)CC(C)C)CC1 (some centres undefined) | 8.08 | pIC50 (Melanocortin receptor 4 [3]): 6.38; inhibition [4]: 34%; pKi (Melanocortin receptor 3): 5.60; fold change (FC) (Homo sapiens): 60; pKi (Melanocortin receptor 5): 5.74; pKi (Melanocortin receptor 4 [2]): 6.30
CC(C)CC(=O)c1ccccc1N1CCN(C(=O)[C@@H](Cc2ccc(Cl)cc2Cl)NCC2CCOC2)CC1 (some centres undefined) | 6.82 | 
CCC(O)(CC)c1ccccc1N1CCN(C(=O)[C@@H](Cc2ccc(Cl)cc2Cl)NC(=O)CN(C)C)CC1 | 8.03 | pIC50 (Melanocortin receptor 4 [3]): 6.40; inhibition [4]: 34%; pKi (Melanocortin receptor 3): 5.51; pKi (Melanocortin receptor 5): 6.02
CC(C)C[C@@H](O)c1ccccc1N1CCN(C(=O)[C@@H](Cc2ccc(Cl)cc2Cl)NC(=O)CN)CC1 | 8.05 | 
NCCC(=O)N[C@H](Cc1ccc(Cl)cc1Cl)C(=O)N1CCN(c2ccccc2C(O)CCc2ccccc2)CC1 (some centres undefined) | 7.49 | 
COc1cccc(CC(O)c2ccccc2N2CCN(C(=O)[C@@H](Cc3ccc(Cl)cc3Cl)NC(=O)CCN)CC2)c1 (some centres undefined) | 7.18 | 
CC(C)C(O)c1ccccc1N1CCN(C(=O)[C@@H](Cc2ccc(Cl)cc2Cl)NC(=O)CCN)CC1 (some centres undefined) | 6.96 | 
CC(C)CC(=O)c1ccccc1N1CCN(C(=O)[C@@H](Cc2ccc(Cl)cc2Cl)NC(=O)[C@H](C)N)CC1 | 7.59 | 
CC(C)CC(N)c1ccccc1N1CCN(C(=O)[C@@H](Cc2ccc(Cl)cc2Cl)N(Cc2ccccn2)Cc2ccccn2)CC1 (some centres undefined) | 8.70 | 
CC(C)CC(=O)c1ccccc1N1CCN(C(=O)[C@@H](Cc2ccc(Cl)cc2Cl)N(CC2CC2)CC2CC2)CC1 | < 5.00 | 
CC(C)CC(N)c1ccccc1N1CCN(C(=O)[C@@H](Cc2ccc(Cl)cc2Cl)NCC2CCOC2)CC1 (some centres undefined) | 7.82 | 
CCC(C)C(O)c1ccccc1N1CCN(C(=O)[C@@H](Cc2ccc(Cl)cc2Cl)NC(=O)CCN)CC1 (some centres undefined) | 7.33 | 

SMILES | pKi (Melanocortin receptor 4 [1]) | also measured
CC(C)CC(O)c1ccccc1N1CCN(C(=O)[C@@H](Cc2ccc(Cl)cc2Cl)NC(=O)C(C)(C)N)CC1 (some centres undefined) | 7.34 | 
CCCCN(CCCC)[C@H](Cc1ccc(Cl)cc1Cl)C(=O)N1CCN(c2ccccc2C(O)CC(C)C)CC1 (some centres undefined) | 5.85 | 
CC(C)CC(O)c1ccccc1N1CCN(C(=O)[C@@H](Cc2ccc(Cl)cc2Cl)NC(=O)C2CCCNC2)CC1 (some centres undefined) | 7.31 | 
CSCCCN[C@H](Cc1ccc(Cl)cc1Cl)C(=O)N1CCN(c2ccccc2C(N)CC(C)C)CC1 (some centres undefined) | 7.68 | 
COc1ccc(CCC(O)c2ccccc2N2CCN(C(=O)[C@@H](Cc3ccc(Cl)cc3Cl)NC(=O)CCN)CC2)cc1 (some centres undefined) | 7.64 | 
CC(C)CC(O)c1ccccc1N1CCN(C(=O)[C@@H](Cc2ccc(Cl)cc2Cl)N(Cc2ccccn2)Cc2ccccn2)CC1 (some centres undefined) | 7.08 | 
CCC(O)(CC)c1ccccc1N1CCN(C(=O)[C@@H](Cc2ccc(Cl)cc2Cl)NC(=O)[C@H](C)N)CC1 | 7.74 | 
CCC(O)(CC)c1ccccc1N1CCN(C(=O)[C@@H](Cc2ccc(Cl)cc2Cl)NC(=O)N2CCCC2=O)CC1 | 6.96 | 
CCCC(O)c1ccccc1N1CCN(C(=O)[C@@H](Cc2ccc(Cl)cc2Cl)NC(=O)CCN)CC1 (some centres undefined) | 7.59 | 
CC(C)CC(O)c1ccccc1N1CCN(C(=O)[C@@H](Cc2ccc(Cl)cc2Cl)NC(=O)[C@H](C)N)CC1 (some centres undefined) | 7.80 | 
CC(C)C[C@H](O)c1ccccc1N1CCN(C(=O)[C@@H](Cc2ccc(Cl)cc2Cl)NC(=O)CN)CC1 | 7.55 | 
CNC(C)(C)C(=O)N[C@H](Cc1ccc(Cl)cc1Cl)C(=O)N1CCN(c2ccccc2C(N)CC(C)C)CC1 (some centres undefined) | 8.33 | 
CC(C)CC(O)c1ccccc1N1CCN(C(=O)[C@@H](Cc2ccc(Cl)cc2Cl)N(CC2CC2)CC2CC2)CC1 (some centres undefined) | < 5.00 | 
CC(C)CC(N)c1ccccc1N1CCN(C(=O)[C@@H](Cc2ccc(Cl)cc2Cl)NC(=O)[C@H](C)N)CC1 (some centres undefined) | 8.38 | 
CCCCCN(CCCCC)[C@H](Cc1ccc(Cl)cc1Cl)C(=O)N1CCN(c2ccccc2C(N)CC(C)C)CC1 (some centres undefined) | 6.46 | 
CNC(C)(C)C(=O)N[C@H](Cc1ccc(Cl)cc1Cl)C(=O)N1CCN(c2ccccc2C(O)CC(C)C)CC1 (some centres undefined) | 7.68 | 
CC(C)CC(N)c1ccccc1N1CCN(C(=O)[C@@H](Cc2ccc(Cl)cc2Cl)N(CC(C)C)CC(C)C)CC1 (some centres undefined) | 5.92 | 
CNCC(=O)N[C@H](Cc1ccc(Cl)cc1Cl)C(=O)N1CCN(c2ccccc2C(N)CC(C)C)CC1 (some centres undefined) | 8.77 | fold change (FC) (Homo sapiens): 58; pKi (Melanocortin receptor 4 [2]): 7.00
CCOC(=O)[C@H]1CCCC[C@@H]1N1CCN(C(=O)[C@@H](Cc2ccc(Cl)cc2Cl)NC(=O)CCN)CC1 | 8.20 | 
CC(C)CC(N)c1ccccc1N1CCN(C(=O)[C@@H](Cc2ccc(Cl)cc2Cl)N(CC2CC2)CC2CC2)CC1 (some centres undefined) | 6.46 | 
CC(C)CC(N)c1ccccc1N1CCN(C(=O)[C@@H](Cc2ccc(Cl)cc2Cl)NC(=O)C(C)(C)N)CC1 (some centres undefined) | 8.11 | 
CC(C)CC(O)c1ccccc1N1CCN(C(=O)[C@@H](Cc2ccc(Cl)cc2Cl)NC(=O)CN(C)C)CC1 (some centres undefined) | 8.02 | pIC50 (Melanocortin receptor 4 [3]): 6.60; inhibition [4]: 36%; pKi (Melanocortin receptor 3): 5.51; pKi (Melanocortin receptor 5): 5.89
